Measured values as given in patent US7109220B2, “Amino substituted pyridinyl methanone compounds useful in treating kinase disorders” (Janssen Pharmaceutica N.V., priority 2003, dated 2006).

Columns and labels:
CDK2:Cyclin-E = target: T1, CDK2:Cyclin-E (Homo sapiens, UniProt P24941); assay: CDK2 Screening Assay; assay type: biochemical; settings: 10 μM ATP, histone-H1 peptide substrate
T1 construct: purchased Upstate Biotechnology, Lake Placid, N.Y
Description: (§1) A kinase reaction mixture was prepared containing 50 mM Tris-HCl pH=8, 10 mM MgCl2, 0.1 mM Na3PO4, 1 mM DTT, 10 μM ATP, 0.025 μM biotinylated histone-H1 peptide substrate and 0.2 μCuries per well^33P-γ-ATP [2000–3000 Ci/mmol]. 70 μL of the kinase reaction mixture was dispensed into the well of a streptavidin coated FlashPlate™ (Cat. #SMP103, NEN, Boston, Mass.). Then 1 μL of test compound stock in 100% DMSO was added to the wells resulting in a final concentration of 1% DMSO in the reaction with a 100 μL final reaction volume. CDK1:Cyclin-B protein^1 was diluted in 50 mM Tris-HCl pH=8.0, 0.1% BSA at a concentration of 1 ng per microliter. 30 μL (30 ng enzyme per test well) was added to each well to initiate the reaction, The reaction was incubated for one hour at 30° C. At the end of the 1-hour incubation, the reaction was terminated by aspirating the reaction mixture from the plate and washing the wells twice with PBS containing 100 mM EDTA. The histone-H1 biotinylated peptide substrate became immobilized on the Flashplate™ and the incorporation of ^33P-γ-ATP was measured by reading the plate on a scintillation counter. Inhibition of the enzymatic activity of CDK1 was measured by observing a reduced amount of ^33P-γ-ATP incorporated into the immobilized peptide. ^1CDK1 (cyclin dependent kinase 1) was isolated from insect cells expressing both the human CDK1 catalytic subunit and its positive regulatory subunit Cyclin B (CDK1: New England Biolabs, Beverly, Mass., Cat. #6020; Cyclin-B: BIOMOL, Plymouth Meeting, Pa., Cat. #SE-195); Peptide Substrate (Biotin)KTPKKAKKPKTPKKAKKL-Amide.
Using the procedure and materials of Example 1, replacing CDK1:Cyclin-B protein with CDK2:Cyclin-E protein^2, the IC50 data for CDK2 is shown in Table 2. ^2CDK2 (cyclin dependent kinase 2) in complex with cyclin E is commercially available (Upstate Biotechnology, Lake Placid, N.Y.); Peptide Substrate (Biotin)KTPKKAKKPKTPKKAKKL-Amide
IC50 values listed as ˜100 indicate no observed 50% inhibition at the highest dose tested, nor was an inhibition maximum observed.

HER2 kinase = target: T2, HER2 kinase (Homo sapiens, UniProt P04626); assay: HER-2 Kinase Screening Assay; assay type: biochemical; settings: HER2 cytoplasmic domain construct, 10 μM ATP
T2 construct: polyhistidine (N); 24 additional non-native amino acids (between the His tag and HER2) (N)
T2 sequence (P04626 676-1255 limits assumed): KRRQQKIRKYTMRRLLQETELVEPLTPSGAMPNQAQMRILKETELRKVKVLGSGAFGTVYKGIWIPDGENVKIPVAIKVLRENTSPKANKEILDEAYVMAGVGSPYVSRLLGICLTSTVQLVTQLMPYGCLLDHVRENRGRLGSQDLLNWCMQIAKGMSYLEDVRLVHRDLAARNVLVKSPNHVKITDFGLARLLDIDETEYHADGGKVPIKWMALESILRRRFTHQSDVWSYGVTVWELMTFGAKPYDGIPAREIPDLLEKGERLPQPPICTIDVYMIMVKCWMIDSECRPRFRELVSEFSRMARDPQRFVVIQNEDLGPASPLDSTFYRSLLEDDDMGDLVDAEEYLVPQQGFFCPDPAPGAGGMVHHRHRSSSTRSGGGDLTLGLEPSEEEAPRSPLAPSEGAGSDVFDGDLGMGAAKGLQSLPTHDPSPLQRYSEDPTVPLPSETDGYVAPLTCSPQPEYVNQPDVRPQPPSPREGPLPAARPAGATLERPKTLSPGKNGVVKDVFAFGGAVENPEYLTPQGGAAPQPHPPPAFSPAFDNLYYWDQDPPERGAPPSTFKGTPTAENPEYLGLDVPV
Description: (§2) A kinase reaction mixture was prepared containing 50 mM Tris-HCl pH=8, 10 mM MgCl2, 0.1 mM Na3PO4, 1 mM DTT, 10 μM ATP, 0.025 uM biotinylated peptide substrate and 0.8 μCuries per well^33P-γ-ATP [2000–3000 Ci/mmol]. 70 μL of the kinase reaction mixture was dispensed into the well of a streptavidin coated FlashPlate™ (Cat. #SMP103, NEN, Boston, Mass.). 1 μL of test compound stock in 100% DMSO was added to the wells resulting in a final concentration of 1% DMSO in the mixture with a 100 μL final reaction volume. Soluble rat VEGF-R2 kinase^3 was diluted in 50 mM Tris-HCl pH=8.0, 0.1% BSA at a concentration of 5 ng per microliter and 30 μL (150 ng enzyme per test well) was added to each well to initiate the reaction. The reaction was incubated for one hour at 30° C. At the end of the 1-hour incubation, the reaction was terminated by aspirating the reaction mixture from the plate and washing the wells twice with PBS containing 100 mM EDTA. The PLC1 biotinylated peptide substrate became immobilized on the Flashplate™ and the incoporation of ^33P-γ-ATP was measured by reading the plate on a scintillation counter. Inhibition of the enzymatic activity of the VEGF-R was measured by observing a reduced amount of ^33P-γ-ATP incorporated into the immobilized peptide. ^3VEGF-R2 kinase (Vascular Endothelial Growth Factor Receptor-2): a fusion protein containing a polyhistidine tag at the N-terminus followed by amino acids 786–1343 of the rat VEGF-R2 kinase domain GenBank Accession #U93306); Peptide Substrate (Biotin)KHKKLAEGSAYEEV-Amide
Using the procedure and materials of Example 3, replacing VEGF-R2 kinase with HER2^4, the IC50 data for HER2 kinase is shown in Table 4. ^4HER2 (Human Epidermal Growth Factor Receptor-2): a construct containing a polyhistidine tag at the N-terminus followed by 24 additional non-native amino acids beginning at amino acid 676 (Accession number M11730) followed by the remainder of the HER2 cytoplasmic domain; Peptide Substrate (Biotin)KHKKLAEGSAYEEV-Amide.
IC50 values listed as >100 indicate no observed 50% inhibition at the highest dose tested, nor was an inhibition maximum observed.

CDK1:Cyclin-B = target: T3, CDK1:Cyclin-B (Homo sapiens, UniProt P06493); assay: CDK1 Screening Assay; assay type: biochemical; settings: 10 μM ATP, histone-H1 peptide substrate, 1 hour at 30° C.
T3 construct: purchased New England Biolabs, Beverly, Mass; (CDK1); BIOMOL, Plymouth Meeting, Pa; (Cyclin-B) #6020 (CDK1); #SE-195 (Cyclin-B); host or cells: insect cells
T3 sequence (P06493 whole entry): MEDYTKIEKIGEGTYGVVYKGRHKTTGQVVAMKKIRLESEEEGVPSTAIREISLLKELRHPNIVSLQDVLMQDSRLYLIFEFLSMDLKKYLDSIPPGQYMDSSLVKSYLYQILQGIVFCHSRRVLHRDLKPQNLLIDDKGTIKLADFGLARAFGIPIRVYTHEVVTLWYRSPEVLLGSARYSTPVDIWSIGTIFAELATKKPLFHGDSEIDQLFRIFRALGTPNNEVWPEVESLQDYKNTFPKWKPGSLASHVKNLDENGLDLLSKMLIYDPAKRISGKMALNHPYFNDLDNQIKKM
T3 sequence (P14635 whole entry partner): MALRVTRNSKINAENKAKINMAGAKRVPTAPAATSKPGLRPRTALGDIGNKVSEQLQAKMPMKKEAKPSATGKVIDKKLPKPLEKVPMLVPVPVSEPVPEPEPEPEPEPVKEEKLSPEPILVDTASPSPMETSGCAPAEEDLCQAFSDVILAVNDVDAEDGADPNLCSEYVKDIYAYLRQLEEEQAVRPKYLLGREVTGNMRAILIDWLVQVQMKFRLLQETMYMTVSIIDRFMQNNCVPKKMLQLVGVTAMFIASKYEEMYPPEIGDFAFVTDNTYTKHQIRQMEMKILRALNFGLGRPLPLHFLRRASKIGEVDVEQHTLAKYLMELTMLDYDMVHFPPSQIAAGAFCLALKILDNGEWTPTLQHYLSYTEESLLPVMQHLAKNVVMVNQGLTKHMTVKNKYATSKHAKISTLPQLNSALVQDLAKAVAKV
Description: as §1
(§3) IC50 values listed as >10 or >100 indicate no observed 50% inhibition at the highest dose tested, nor was an inhibition maximum observed.

VEGF-R2 kinase = target: T4, VEGF-R2 kinase (Rattus norvegicus, UniProt O08775); assay: VEGF-R2 Kinase Screening Assay; assay type: biochemical; settings: soluble rat VEGF-R2 kinase, 10 μM ATP; read-out: VEGF-R IC50
T4 construct: polyhistidine (N)
T4 sequence (O08775 786-1343): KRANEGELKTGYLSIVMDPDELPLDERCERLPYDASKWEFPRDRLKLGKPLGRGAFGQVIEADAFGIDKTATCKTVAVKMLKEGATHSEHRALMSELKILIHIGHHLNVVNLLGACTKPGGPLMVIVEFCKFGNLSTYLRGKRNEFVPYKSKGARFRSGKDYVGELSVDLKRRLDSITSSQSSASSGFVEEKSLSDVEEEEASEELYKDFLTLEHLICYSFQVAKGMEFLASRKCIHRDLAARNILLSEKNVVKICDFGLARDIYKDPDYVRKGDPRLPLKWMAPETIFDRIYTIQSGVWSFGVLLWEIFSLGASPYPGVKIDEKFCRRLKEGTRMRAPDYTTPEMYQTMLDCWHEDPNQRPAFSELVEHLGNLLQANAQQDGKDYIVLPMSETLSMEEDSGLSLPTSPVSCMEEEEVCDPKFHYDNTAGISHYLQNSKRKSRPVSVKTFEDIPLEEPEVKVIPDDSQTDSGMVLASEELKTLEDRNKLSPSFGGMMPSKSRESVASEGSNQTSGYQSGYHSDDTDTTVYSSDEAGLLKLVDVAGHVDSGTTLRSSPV
Description: as §2, §3

[1] = tested on: HeLa cervical adenocarcinoma; assay: Inhibition of Cell Proliferation (14C-thymidine incorporation), HeLa; assay type: cell-based; settings: Homo sapiens
Description: (§4) The ability of a test compound to inhibit the proliferation of cell growth was determined by measuring incorporation of ^14C-labelled thymidine into newly synthesized DNA within the cells. This method was used on cell lines derived from carcinomas originating from several tissues such as HeLa cervical adenocarcinoma (American Type Culture Collection (ATCC), Virginia, Cat. #CCL-2), HCT-116 colon carcinoma (CCL-247), MDA-MB-231 (Xenogen Corp.), PC-3 prostate adenocarcinoma (ATCC CRL-1435) and A375 malignant melanoma (ATCC CRL-1619).
(§5) Using this method, the effect of a compound on cell growth for cells with many different phenotypes can be determined. Cells were trypsinized and counted and 3000–8000 cells were added to each well of a 96-well CytoStar tissue culture treated scintillating microplate (Amersham #RPNQ0160) in complete medium in a volume of 100 μl. Cells were incubated for 24 hours in complete medium at 37° C. in an atmosphere containing 5% CO2. 1 μL of test compound in 100% DMSO was then added to the wells of the plate. DMSO only was added to control wells. Cells were incubated for 24 more hours in complete medium at 37° C. in an atmosphere containing 5% CO2. […] The degree of methyl ^14C-thymidine incorporation was quantified on a Packard Top Count.

A375 malignant melanoma = assay: Inhibition of Cell Proliferation (14C-thymidine incorporation), A375; assay type: cell-based; settings: Homo sapiens, A-375
Description: as §4, §5

HCT-116 colon carcinoma = assay: Inhibition of Cell Proliferation (14C-thymidine incorporation), HCT-116; assay type: cell-based; settings: Homo sapiens
Description: as §4, §5

CCCCOc1cc(Nc2ccc(S(=O)(=O)N(C)C)cc2)nc(N)c1C(=O)c1c(F)cccc1F [Cpd 35, 4-[6-Amino-4-butoxy-5-(2,6-difluoro-benzoyl)-pyridin-2-ylamino]-N,N-dimethyl-benzenesulfonamide]
IC50 (CDK2:Cyclin-E): 0.62 µM | IC50 (HER2 kinase): > 100 µM | IC50 (CDK1:Cyclin-B): ~1 µM | IC50 (VEGF-R2 kinase): > 100 µM

CCCCOc1cc(N)nc(N)c1C(=O)c1c(F)cccc1F [Cpd 31, (2,6-Diamino-4-butoxy-pyridin-3-yl)-(2,6-difluoro-phenyl)-methanone]
IC50 (CDK2:Cyclin-E): 1.32 µM | IC50 (HER2 kinase): 1.14 µM | IC50 (CDK1:Cyclin-B): 1.16 µM | IC50 (VEGF-R2 kinase): 40.2 µM

Nc1ccc(C(=O)c2c(F)cccc2F)c(N)n1 [Cpd 1, (2,6-diamino-3-pyridinyl)(2,6-difluorophenyl)methanone]
melting point: 179 to 181 °C | IC50 (VEGF-R2 kinase): > 10 µM

CCCCOc1cc(Nc2ccc(S(N)(=O)=O)cc2)nc(N)c1C(=O)c1c(F)cccc1F [Cpd 36, 4-[6-Amino-4-butoxy-5-(2,6-difluoro-benzoyl)-pyridin-2-ylamino]-benzenesulfonamide]
IC50 [1]: 10.7 µM | IC50 (CDK2:Cyclin-E): 0.07 µM | IC50 (A375 malignant melanoma): 2.96 µM | IC50 (HCT-116 colon carcinoma): 6.78 µM | IC50 (HER2 kinase): 1 µM | IC50 (CDK1:Cyclin-B): 0.28 µM | IC50 (VEGF-R2 kinase): > 100 µM

N#Cc1ccc(Nc2ccc(C(=O)c3c(F)cccc3F)c(N)n2)cc1 [Cpd 8, 4-[[6-amino-5-(2,6-difluorobenzoyl)-2-pyridinyl]amino]benzonitrile]
melting point: 208 to 210 °C (dec.) | IC50 (VEGF-R2 kinase): > 10 µM

CCCCOc1cc(NC(=S)Nc2ccccc2)nc(N)c1C(=O)c1c(F)cccc1F [Cpd 33, 1-[6-Amino-4-butoxy-5-(2,6-difluoro-benzoyl)-pyridin-2-yl]-3-phenyl-thiourea]
IC50 (CDK2:Cyclin-E): ≥ 100 µM | IC50 (HER2 kinase): > 100 µM | IC50 (CDK1:Cyclin-B): > 100 µM | IC50 (VEGF-R2 kinase): > 100 µM

Nc1nc(Nc2ccc([N+](=O)[O-])cc2)ccc1C(=O)c1c(F)cccc1F [Cpd 9, [2-amino-6-[(4-nitrophenyl)amino]-3-pyridinyl](2,6-difluorophenyl)methanone]
melting point: 220 to 225 °C | IC50 (VEGF-R2 kinase): > 10 µM

CCCCOc1cc(NC(=O)c2ccccc2)nc(N)c1C(=O)c1c(F)cccc1F [Cpd 34, N-[6-Amino-4-butoxy-5-(2,6-difluoro-benzoyl)-pyridin-2-yl]-benzamide]
IC50 (CDK2:Cyclin-E): ≥ 100 µM | IC50 (HER2 kinase): > 100 µM | IC50 (CDK1:Cyclin-B): > 100 µM | IC50 (VEGF-R2 kinase): > 100 µM
